Source: patent publication US10023559B2 (Hoffmann-La Roche Inc., priority 2014, dated 2018)

How the values were obtained:
rat TAAR1 = rat TAAR1 (Rattus norvegicus (Rat), UniProt Q923Y9); test: Radioligand binding assay on rat TAAR1; details: read-out: Ki(μM) rat; rat TAAR1, HEK-293 membranes, second value of cell pair mouse/rat
Experimental: (§1) Membrane Preparation and Radioligand Binding.
HEK-293 cells stably expressing rat TAAR1 were maintained at 37° C. and 5% CO2 in DMEM high glucose medium, containing fetal calf serum (10%, heat inactivated for 30 min at 56° C.), penicillin/streptomycin (1%), and 375 μg/ml geneticin (Gibco). Cells were released from culture flasks using trypsin/EDTA, harvested, washed twice with ice-cold PBS (without Ca^2+ and Mg^2+), pelleted at 1,000 rpm for 5 min at 4° C., frozen and stored at −80° C. Frozen pellets were suspended in 20 ml HEPES-NaOH (20 mM, pH 7.4) containing 10 mM EDTA and homogenized with a Polytron (PT 6000, Kinematica) at 14,000 rpm for 20 s. The homogenate was centrifuged at 48,000×g for 30 min at 4° C. Subsequently, the supernatant was removed and discarded, and the pellet resuspended in 20 ml HEPES-NaOH (20 mM, pH 7.4) containing 0.1 mM EDTA using the Polytron (20 s at 14,000 rpm). This procedure was repeated and the final pellet resuspended in HEPES-NaOH containing 0.1 mM EDTA and homogenized using the Polytron. Typically, aliquots of 2 ml membrane portions were stored at −80° C. With each new membrane batch the dissociation constant (Kd) was determined via a saturation curve. […] Nonspecific binding was defined as the amount of [H]—(S)-4-[(ethyl-phenyl-amino)-methyl]-4,5-dihydro-oxazol-2-ylamine bound in the presence of 10 M unlabeled ligand. All compounds were tested at a broad range of concentrations (10 pM to 10 μM) in duplicates. […] The 96 deep well plates were incubated for 1 hr at 4° C. Incubations were terminated by rapid filtration through Unifilter-96 plates (Packard Instrument Company) and glass filters GF/C (Perkin Elmer) presoaked for 1 hr in polyethylenimine (0.3%) and washed 3 times with 1 ml of cold binding buffer. After addition of 45 μl of Microscint 40 (PerkinElmer) the Unifilter-96 plate was sealed and after 1 hr the radioactivity counted using a TopCount Microplate Scintillation Counter (Packard Instrument Company).

mouse TAAR1 = mouse TAAR1 (Mus musculus (Mouse), UniProt Q923Y8); test: Radioligand binding assay on mouse TAAR1
Sequence of mouse TAAR1 (Q923Y8 whole entry): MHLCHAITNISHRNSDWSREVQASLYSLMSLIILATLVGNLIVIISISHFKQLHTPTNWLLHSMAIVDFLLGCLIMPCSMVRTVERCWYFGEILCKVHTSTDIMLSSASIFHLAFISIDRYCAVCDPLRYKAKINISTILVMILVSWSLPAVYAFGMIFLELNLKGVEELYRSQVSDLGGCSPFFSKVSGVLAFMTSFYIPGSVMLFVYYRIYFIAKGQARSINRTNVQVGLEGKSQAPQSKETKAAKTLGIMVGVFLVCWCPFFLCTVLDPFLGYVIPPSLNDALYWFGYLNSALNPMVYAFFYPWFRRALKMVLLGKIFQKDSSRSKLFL
Experimental: as §1
HEK-293 cells stably expressing mouse TAAR1 were maintained at 37° C. and 5% CO2 in DMEM high glucose medium, containing fetal calf serum (10%, heat inactivated for 30 min at 56° C.), penicillin/streptomycin (1%), and 375 μg/ml geneticin (Gibco). Cells were released from culture flasks using trypsin/EDTA, harvested, washed twice with ice-cold PBS (without Ca^2+ and Mg^2+), pelleted at 1,000 rpm for 5 min at 4° C., frozen and stored at −80° C. Frozen pellets were suspended in 20 ml HEPES-NaOH (20 mM, pH 7.4) containing 10 mM EDTA and homogenized with a Polytron (PT 6000, Kinematica) at 14,000 rpm for 20 s. The homogenate was centrifuged at 48,000×g for 30 min at 4° C. Subsequently, the supernatant was removed and discarded, and the pellet resuspended in 20 ml HEPES-NaOH (20 mM, pH 7.4) containing 0.1 mM EDTA using the Polytron (20 s at 14,000 rpm). This procedure was repeated and the final pellet resuspended in HEPES-NaOH containing 0.1 mM EDTA and homogenized using the Polytron. Typically, aliquots of 2 ml membrane portions were stored at −80° C. With each new membrane batch the dissociation constant (Kd) was determined via a saturation curve. […] Nonspecific binding was defined as the amount of ^3[H]—(S)-4-[(ethyl-phenyl-amino)-methyl]-4,5-dihydro-oxazol-2-ylamine bound in the presence of 10 M unlabeled ligand. All compounds were tested at a broad range of concentrations (10 pM to 10 μM) in duplicates. […] The 96 deep well plates were incubated for 1 hr at 4° C. Incubations were terminated by rapid filtration through Unifilter-96 plates (Packard Instrument Company) and glass filters GF/C (Perkin Elmer) presoaked for 1 hr in polyethylenimine (0.3%) and washed 3 times with 1 ml of cold binding buffer. After addition of 45 μl of Microscint 40 (PerkinElmer) the Unifilter-96 plate was sealed and after 1 hr the radioactivity counted using a TopCount Microplate Scintillation Counter (Packard Instrument Company).

Sequence of rat TAAR1 (Q923Y9 whole entry): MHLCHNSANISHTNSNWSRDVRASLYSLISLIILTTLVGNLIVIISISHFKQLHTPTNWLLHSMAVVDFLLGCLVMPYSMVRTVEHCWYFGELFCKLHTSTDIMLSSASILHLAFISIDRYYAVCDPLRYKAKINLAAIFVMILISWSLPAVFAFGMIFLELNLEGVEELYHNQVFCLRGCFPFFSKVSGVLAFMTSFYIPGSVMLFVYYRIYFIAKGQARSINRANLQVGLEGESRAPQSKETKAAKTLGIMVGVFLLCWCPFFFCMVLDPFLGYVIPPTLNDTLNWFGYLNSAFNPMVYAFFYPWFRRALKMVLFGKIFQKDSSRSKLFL

Row | Compound | Ki (rat TAAR1) [µM] | Ki (mouse TAAR1) [µM]
1 | Cc1cc(C(=O)Nc2cc(F)c(C=C3CNC3)c(F)c2)nc(C(F)(F)F)n1 [Example 82, N-(4-(azetidin-3-ylidenemethyl)-3,5-difluorophenyl)-6-methyl-2-(trifluoromethyl)pyrimidine-4-carboxamide] | 0.0055 | 0.0278
2 | CCc1n[nH]c(C(=O)Nc2cc(F)c(C=C3CNC3)c(F)c2)c1C [Example 83, N-(4-(azetidin-3-ylidenemethyl)-3,5-difluorophenyl)-3-ethyl-4-methyl-1H-pyrazole-5-carboxamide] | 0.0009 | 0.0167
3 | c1ccc(C[C@H]2CCN2)cc1 [Example 89, (S)-2-benzylazetidine] | 0.0822 | 1.52
4 | F[C@H]1CN[C@H]1Cc1ccccc1 [Example 90, (2S,3S)-2-benzyl-3-fluoroazetidine] | 0.274 | 4.38
5 | F[C@@H]1CN[C@H]1Cc1ccccc1 [Example 91, (2S,3R)-2-benzyl-3-fluoroazetidine] | 0.149 | 1.07
6 | F[C@@H]1CN[C@@H]1Cc1ccccc1 [Example 92, (2R,3R)-2-benzyl-3-fluoroazetidine] | 0.607 | 0.244
7 | F[C@H]1CN[C@@H]1Cc1ccccc1 [Example 93, (2R,3S)-2-benzyl-3-fluoroazetidine] | 2.09 | 1.28
8 | CO[C@H]1CN[C@H]1Cc1ccccc1 [Example 94, (2S,3S)-2-benzyl-3-methoxyazetidine] | 0.767 | 4.05
9 | CO[C@@H]1CN[C@H]1Cc1ccccc1 [Example 95, (2S,3R)-2-benzyl-3-methoxyazetidine] | 0.648 | 2.77
10 | CO[C@@H]1CN[C@@H]1Cc1ccccc1 [Example 100, (2R,3R)-2-benzyl-3-methoxyazetidine] | 0.151 | 0.317
11 | CO[C@H]1CN[C@@H]1Cc1ccccc1 [Example 101, (2R,3S)-2-benzyl-3-methoxyazetidine] | 2.04 | 2.61
12 | CCc1n[nH]c(C(=O)Nc2ccc(C[C@@H]3NC[C@@H]3F)cc2)c1C [Example 102, 3-ethyl-N-(4-(((2S,3S)-3-fluoroazetidin-2-yl)methyl)phenyl)-4-methyl-1H-pyrazole-5-carboxamide] | 0.0875 | 0.0148
13 | CCc1n[nH]c(C(=O)Nc2ccc(C[C@H]3NC[C@H]3F)cc2)c1C [Example 103, 3-ethyl-N-(4-(((2R,3R)-3-fluoroazetidin-2-yl)methyl)phenyl)-4-methyl-1H-pyrazole-5-carboxamide] | 1.27 | 0.0456
14 | O=C(Nc1ccc(C[C@@H]2NC[C@@H]2F)cc1)c1ccnc(C(F)(F)F)c1 [Example 104, N-(4-(((2S,3S)-3-fluoroazetidin-2-yl)methyl)phenyl)-2-(trifluoromethyl)isonicotinamide] | 0.0231 | 0.0108
15 | COc1ccc(NC(=O)Nc2ccc(OC3CNC3)cc2)cc1 [Example 108, 1-[4-(azetidin-3-yloxy)phenyl]-3-(4-methoxyphenyl)urea] | 0.0269 | 0.108
16 | O=C(Nc1ccc(OC2CNC2)cc1)Nc1cccc(Cl)c1 [Example 109, 1-[4-(azetidin-3-yloxy)phenyl]-3-(3-chlorophenyl)urea] | 0.003 | 0.0046
17 | O=C(Nc1ccc(SC2CNC2)cc1)Nc1cccc(Cl)c1 [Example 112, 1-[4-(azetidin-3-ylsulfanyl)phenyl]-3-(3-chlorophenyl)urea] | 0.0111 | 0.0111
18 | O=C(Nc1ccc(C=C2CNC2)cc1)Nc1cccc(Cl)c1 [Example 118, 1-[4-(azetidin-3-ylidenemethyl)phenyl]-3-(3-chlorophenyl)urea] | 0.0021 | 0.0038
19 | COc1cc(C(=O)Nc2ccc(C[C@H]3NC[C@H]3F)cc2)ccn1 [Example 120, N-(4-(((2R,3R)-3-fluoroazetidin-2-yl)methyl)phenyl)-2-methoxyisonicotinamide] | > 1.5 | 0.0103
20 | O=C(Nc1ccc(C[C@H]2NC[C@H]2F)cc1)c1ccnc(C(F)(F)F)c1 [Example 121, N-(4-(((2R,3R)-3-fluoroazetidin-2-yl)methyl)phenyl)-2-(trifluoromethyl)isonicotinamide] | 0.809 | 0.007
21 | O=C(Nc1ccc(C[C@H]2NC[C@H]2F)cc1)c1cnc(C2CC2)nc1 [Example 124, 2-cyclopropyl-N-(4-(((2R,3R)-3-fluoroazetidin-2-yl)methyl)phenyl)pyrimidine-5-carboxamide] | > 1.5 | 0.0554
22 | CC(C)c1cc(C(=O)Nc2ccc(C[C@H]3NC[C@H]3F)cc2)[nH]n1 [Example 125, N-(4-(((2R,3R)-3-fluoroazetidin-2-yl)methyl)phenyl)-3-isopropyl-1H-pyrazole-5-carboxamide] | 0.466 | 0.016
23 | COc1cc(C(=O)Nc2ccc(C[C@@H]3NC[C@@H]3F)cc2)ccn1 [Example 127, N-(4-(((2S,3S)-3-fluoroazetidin-2-yl)methyl)phenyl)-2-methoxyisonicotinamide] | 0.133 | 0.0038

Next, values leading:

Row | Ki (rat TAAR1) [µM] | Ki (mouse TAAR1) [µM] | Compound
24 | 0.0014 | 0.0033 | O=C(Nc1cc(F)c(C=C2CNC2)c(F)c1)c1ccc(Cl)nc1 [Example 84, N-(4-(azetidin-3-ylidenemethyl)-3,5-difluorophenyl)-6-chloronicotinamide]
25 | 0.0134 | 0.0509 | Cc1cc(C(=O)Nc2ccc(C=C3CNC3)c(F)c2)nc(C(F)(F)F)n1 [Example 85, N-(4-(azetidin-3-ylidenemethyl)-3-fluorophenyl)-6-methyl-2-(trifluoromethyl)pyrimidine-4-carboxamide]
26 | 0.0038 | 0.0018 | O=C(Nc1ccc(C=C2CNC2)c(F)c1)c1ccc(Cl)nc1 [Example 86, N-(4-(azetidin-3-ylidenemethyl)-3-fluorophenyl)-6-chloronicotinamide]
27 | 0.0024 | 0.0122 | CCc1cc(C(=O)Nc2cc(F)c(C=C3CNC3)c(F)c2)nc(C(F)(F)F)n1 [Example 87, N-(4-(azetidin-3-ylidenemethyl)-3,5-difluorophenyl)-6-ethyl-2-(trifluoromethyl)pyrimidine-4-carboxamide]
28 | 0.005 | 0.0174 | CCc1n[nH]c(C(=O)Nc2ccc(C=C3CNC3)c(F)c2)c1C [Example 88, N-(4-(azetidin-3-ylidenemethyl)-3-fluorophenyl)-3-ethyl-4-methyl-1H-pyrazole-5-carboxamide]
29 | 0.0016 | 0.0019 | O=C(Nc1ccc(CC2(F)CNC2)cc1)Nc1ccc(C(F)(F)F)cc1 [Example 105, 1-[4-[(3-fluoroazetidin-3-yl)methyl]phenyl]-3-[4-(trifluoromethyl)phenyl]urea]
30 | 0.0239 | 0.0019 | COc1ccc(NC(=O)Nc2ccc(CC3(F)CNC3)cc2)cc1 [Example 106, 1-[4-[(3-fluoroazetidin-3-yl)methyl]phenyl]-3-(4-methoxyphenyl)urea]
31 | 0.0026 | 0.0025 | O=C(Nc1ccc(CC2(F)CNC2)cc1)Nc1cccc(Cl)c1 [Example 107, 1-(3-chlorophenyl)-3-[4-[(3-fluoroazetidin-3-yl)methyl]phenyl]urea]
32 | 0.0081 | 0.0131 | O=C(Nc1ccc(SC2CNC2)cc1)Nc1ccc(C(F)(F)F)cc1 [Example 110, 1-[4-(azetidin-3-ylsulfanyl)phenyl]-3-[4-(trifluoromethyl)phenyl]urea]
33 | 0.139 | 0.161 | COc1ccc(NC(=O)Nc2ccc(SC3CNC3)cc2)cc1 [Example 111, 1-[4-(azetidin-3-ylsulfanyl)phenyl]-3-(4-methoxyphenyl)urea]
34 | 0.0042 | 0.0087 | O=C(Nc1ccc(CC2CNC2)cc1)Nc1ccc(C(F)(F)F)cc1 [Example 113, 1-[4-(azetidin-3-ylmethyl)phenyl]-3-[4-(trifluoromethyl)phenyl]urea]
35 | 0.156 | 0.16 | COc1ccc(NC(=O)Nc2ccc(CC3CNC3)cc2)cc1 [Example 114, 1-[4-(azetidin-3-ylmethyl)phenyl]-3-(4-methoxyphenyl)urea]
36 | 0.0138 | 0.0272 | O=C(Nc1ccc(CC2CNC2)cc1)Nc1cccc(Cl)c1 [Example 115]
37 | 0.0016 | 0.0037 | O=C(Nc1ccc(C=C2CNC2)cc1)Nc1ccc(C(F)(F)F)cc1 [Example 116, 1-[4-(azetidin-3-ylidenemethyl)phenyl]-3-[4-(trifluoromethyl)phenyl]urea]
38 | 0.0154 | 0.0277 | COc1ccc(NC(=O)Nc2ccc(C=C3CNC3)cc2)cc1 [Example 117, 1-[4-(azetidin-3-ylidenemethyl)phenyl]-3-(4-methoxyphenyl)urea]
39 | 1.18 | 0.336 | Cc1cc(C(=O)Nc2ccc(C[C@H]3NC[C@H]3F)cc2)nc(C(F)(F)F)n1 [Example 119, N-(4-(((2R,3R)-3-fluoroazetidin-2-yl)methyl)phenyl)-6-methyl-2-(trifluoromethyl)pyrimidine-4-carboxamide]
40 | 1.16 | 0.0097 | CCOc1ccc(C(=O)Nc2ccc(C[C@H]3NC[C@H]3F)cc2)cn1 [Example 122, 6-ethoxy-N-(4-(((2R,3R)-3-fluoroazetidin-2-yl)methyl)phenyl)nicotinamide]
41 | 0.61 | 0.0232 | O=C(Nc1ccc(C[C@H]2NC[C@H]2F)cc1)c1cnc(C(F)(F)F)nc1 [Example 123, N-(4-(((2R,3R)-3-fluoroazetidin-2-yl)methyl)phenyl)-2-(trifluoromethyl)pyrimidine-5-carboxamide]
42 | 0.0224 | 0.0229 | Cc1cc(C(=O)Nc2ccc(C[C@@H]3NC[C@@H]3F)cc2)nc(C(F)(F)F)n1 [Example 126, N-(4-(((2S,3S)-3-fluoroazetidin-2-yl)methyl)phenyl)-6-methyl-2-(trifluoromethyl)pyrimidine-4-carboxamide]
43 | 0.0204 | 0.0023 | CCOc1ccc(C(=O)Nc2ccc(C[C@@H]3NC[C@@H]3F)cc2)cn1 [Example 128, 6-ethoxy-N-(4-(((2S,3S)-3-fluoroazetidin-2-yl)methyl)phenyl)nicotinamide]
